In US11426403B2 (ST IP Holding AG, priority 2016, dated 2022):
Read-outs that look alike come from different tables or passages of the source.

Experiments:
[1] = tested on: oral mucositis induced by acute radiation, left buccal cheek pouch
Protocol: Twenty-four (24) male Syrian Golden Hamsters were used in the study. Mucositis was induced by giving an acute radiation dose of 40 Gy directed to the left buccal cheek pouch on Day 0. Mucositis was evaluated clinically starting on Day 6, and continuing on alternate days until Day 28.
Mucositis was scored visually by comparison to a validated photographic scale, ranging from 0 for normal, to 5 for severe ulceration (clinical scoring). In descriptive terms, this scale is defined as described in Table 7 below: […]
A mucositis score of 3 or greater indicates ulcerative mucositis, a clinically significant threshold.
Statistical significance of observed differences was calculated using chi-squared analysis.
An analysis of the severity of mucositis was performed using the Mann-Whitney rank sum analysis to compare the visual mucositis scores for Groups 2 and 3 to the vehicle control group (Group 1) on each day of the analysis. In this analysis, 2 consecutive days of significant reduction in the mucositis score are generally required before it is regarded as clinically meaningful.
The significance of group differences observed in daily mucositis scores was determined using the Mann-Whitney rank sum test. This nonparametric statistic is appropriate for the visual mucositis scoring scale. The p-values for each calculation are shown. “x” denotes significant difference in mucositis scores. “y” denotes increase in comparison to vehicle Group […], “z” denotes decrease.
“y” denotes an increase in comparison to vehicle Group, “z” denotes decrease (improvement).

[2] = hamster, Days -3 to 28, topical 1 mg/dose BID
[3] = tested on: primary human gingival epithelial cells (HGEPp); settings: pretreated 24 h at 50 to 800 ug/ml, then 0.3 mM H2O2 for 4 h; P<0.05 versus PC
Protocol: (§1) Pooled primary HGEPps were propagated in CnT-Prime epithelial culture medium provided by CellnTec on 100 mm petri dishes coated with 30 mg/ml Type I rat tail collagen (BD Biosciences) diluted in Dulbecco's phosphate-buffered saline (DPBS). […] The cells were harvested when they reached 70-90% confluency as observed by light microscopy. For routine cultivation, the medium was changed every 3 days. For both the cell viability and ROS assays, the cells from passages 3-7 were seeded at 5×10 3, 2.5×10 4, 5×10^4 cells/cm 2 density to grow cell monolayers in 24-well flat-bottomed tissue culture plates and acclimated overnight at 37° C. […]
(§2) Once the HGEPp cells were cultured and ready on the microplate, the media was removed from all the wells and discarded. […] Removed the plate cover and measured the absorbance of the wells, including the blanks at 570 nm. • 8. Determined the average values from triplicate readings after subtracting the average value for the blanks.
(§3) HGEPp cells were exposed to different concentrations of H2O2 for 4 h to examine H2O2-induced oxidative stress. The cells were exposed to 0-0.6 mM H2O2 for 4 h and cell viability was evaluated using the TACS MTT Cell Proliferation Assay Kit. The percentage of cell survival was determined using the ratio of the optical density (OD) of the test sample to the OD of the control×100%. […]

[4] = tested on: reactive oxygen species within HGEPp cells; settings: 0.3 mM H2O2 for 4 h
Description: 2. measure the effect of recrystallized oltipraz and formulated oltipraz on hydroxyl, peroxyl and other reactive oxygen species within HGEPp cells, using Cell Biolabs' OxiSelect™ Intracellular ROS Assay Kit. This assay employs the cell-permeable fluorogenic probe 2′,7′-dichlorodihydrofluorescin diacetate (DCFH-DA) which diffuses into cells and is deacetylated by cellular esterases to a nonfluorescent DCFH which is then rapidly oxidized to highly fluorescent 2′,7′-dichlorodihydrofluorescein (DCF) by ROS.
Pooled primary HGEPps were propagated in CnT-Prime epithelial culture medium provided by CellnTec on 100 mm petri dishes coated with 30 mg/ml Type I rat tail collagen (BD Biosciences) diluted in Dulbecco's phosphate-buffered saline (DPBS). […] The cells were harvested when they reached 70-90% confluency as observed by light microscopy. For routine cultivation, the medium was changed every 3 days. […]
Prepared and mixed all reagents thoroughly before use. […] Once the HGEPp cells were cultured and ready on a microplate, the media was removed from all the wells and discarded. […] Fluorescence was read on a Fluorescence Plate Reader after 1 hour. […] Transferred 150 μL of the mixture to a fresh 24-well plate for fluorescence measurements at 530 nm. […]
Intracellular ROS was measured using a Spectramax M3 microplate reader.

[5] = tested on: primary human gingival epithelial cells (HGEPp); assay: cells; settings: Epithelial cell, 4 h, read-out: IC50 of H2O2 in HGEPp cells
Protocol: as §1, §2, §3

Row | IC50 [5] [µM] | SMILES | Percent of Animals with Ulceration (Score ≥ 3) ([1]; Day 6) [%] | Percent of Animals with Ulceration (Score ≥ 3) ([1]; Day 8) [%] | Percent of Animals with Ulceration (Score ≥ 3) ([1]; Day 10) [z Percent] | Percent of Animals with Ulceration (Score ≥ 3) ([1]; Day 12) [y Percent] | Percent of Animals with Ulceration (Score ≥ 3) ([1]; Day 14) [%] | Percent of Animals with Ulceration (Score ≥ 3) ([1]; Day 16) [%] | Percent of Animals with Ulceration (Score ≥ 3) ([1]; Day 18) [%] | Percent of Animals with Ulceration (Score ≥ 3) ([1]; Day 20) [%] | Percent of Animals with Ulceration (Score ≥ 3) ([1]; Day 22) [%] | Percent of Animals with Ulceration (Score ≥ 3) ([1]; Day 24) [z Percent] | Percent of Animals with Ulceration (Score ≥ 3) ([1]; Day 26) [z Percent] | Percent of Animals with Ulceration (Score ≥ 3) ([1]; Day 28) [z Percent] | mean daily percent body weight change (rate of weight gain) [2] | effect on H2O2-induced decrease in HGEPp survival (MTT) [3] | ROS levels compared to normal control cells (100%) [4] [%]
1 |  | Cc1c(-c2cnccn2)ssc1=S [Neat oltipraz, 4-methyl-5-(pyrazin-2-yl)-3H-1,2-dithiole-3-thione] | 0.0 | 0.0 | 0.0 | 50.0 | 100.0 | 100.0 | 100.0 | 100.0 | 100.0 | 50.0 | 25.0 | 25.0 | gained weight at a slower rate than those administered placebo | promoted cell proliferation and reduced H2O2-induced decrease in HGEPp survival | 
2 | 300 | OO [Sample H2O2, hydrogen peroxide] |  |  |  |  |  |  |  |  |  |  |  |  |  |  | 128
